Results taken from US20090221559A1 (priority 2005, published 2009).
Like-named read-outs stand apart in the source and are kept apart here.

How the values were obtained:
[1] = test system: HCV replicon RNA replication in Huh-7 luc/neo (Huh-Luc) cells; test: HCV replicon assay (stable replicon cell reporter assay, luciferase read-out); type: cell-based, HCV type 1b
In short: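 Huh-7 cells stably carry a bicistronic HCV 1b NS3-NS5B subgenomic replicon with firefly luciferase and neo markers. Cells were plated with compound across a concentration range and incubated three days. Replication was measured as luciferase activity to give dose-response curves.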

[2] = target: T1, HCV NS5B polymerase (His-tagged, C-terminal 21 amino acid deleted NS5B, HC-J4) (Hepatitis C virus genotype 1b, UniProt O92972); test: NS5b polymerase assay (biochemical RdRp assay, 3H-GTP incorporation, SPA beads); set-up: species or system HCV genotype 1b; conditions: 3H-GTP incorporation, 2 h at 25° C.
T1 construct: The cDNA encoding NS5B amino acid 1-570 (HC-J4, genotype 1b); His tag (His6, from pET-21b) (C); made in house; host or cells: E. coli BL21 (DE3)
T1 sequence (O92972 2417-3000, looked up, stated change not applied): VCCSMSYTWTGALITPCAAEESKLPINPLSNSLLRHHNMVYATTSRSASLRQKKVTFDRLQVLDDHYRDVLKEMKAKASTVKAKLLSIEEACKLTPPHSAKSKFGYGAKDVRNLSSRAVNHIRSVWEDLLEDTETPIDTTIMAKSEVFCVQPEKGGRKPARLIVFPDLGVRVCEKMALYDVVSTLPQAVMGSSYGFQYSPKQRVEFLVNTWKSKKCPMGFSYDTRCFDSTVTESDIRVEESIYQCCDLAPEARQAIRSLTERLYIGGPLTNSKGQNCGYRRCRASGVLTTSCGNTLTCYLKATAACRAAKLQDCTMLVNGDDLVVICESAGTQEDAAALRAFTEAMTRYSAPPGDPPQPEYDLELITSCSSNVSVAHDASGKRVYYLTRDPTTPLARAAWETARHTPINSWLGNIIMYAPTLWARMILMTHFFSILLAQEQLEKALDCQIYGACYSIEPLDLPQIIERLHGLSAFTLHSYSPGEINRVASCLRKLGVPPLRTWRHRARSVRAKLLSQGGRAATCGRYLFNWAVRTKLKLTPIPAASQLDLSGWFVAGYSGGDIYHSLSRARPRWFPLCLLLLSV
In short: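 His-tagged C-terminal-21-aa-deleted NS5B (genotype 1b, HC-J4) at 200 nM was preincubated 15 min at RT with compound on 5′-biotinylated oligo(rG13)/poly(rC) template/primer before NTPs. Reaction with 600 nM GTP plus 0.1 μCi 3H-GTP and 5 mM MgCl2 in Tris pH 7.5 ran 2 h at 25 °C. Stopped with EDTA/SPA beads for incorporation counting.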

[3] = Hepatitis C virus, Huh-7, 72 h, read-out: Replicon Assay EC50, Huh-Luc cells, three days incubation, luciferase activity
[4] = NS5B Polymerase Assay IC50, 200 nM enzyme
[5] = Huh-Luc cells, three days incubation, luciferase activity, read-out: Replicon Assay EC50
[6] = 200 nM enzyme, read-out: NS5B Polymerase Assay IC50

SMILES	EC50 [1, 3] [µM]	IC50 [2, 4] [µM]	EC50 [1, 5] [µM]	IC50 [2, 6] [µM]
CC(=O)N1c2ccccc2NC2=C(C(=O)CC(C)(C)C2)C1c1ccc(Oc2ccccc2Br)cc1 (stereo not drawn) [compound 147, 10-acetyl-11-[4-(2-bromophenoxy)phenyl]-3,3-dimethyl-2,3,4,5,10,11-hexahydro-1H-dibenzo[b,e][1,4]diazepin-1-one]	4.22	1.97	–	–
CC(=O)N1c2ccccc2NC2=C(C(=O)CC(C)(C)C2)C1c1ccc(OCc2ccccc2Cl)cc1 (stereo not drawn) [compound 148, 10-acetyl-11-[4-(2-chlorobenzyloxy)phenyl]-3,3-dimethyl-2,3,4,5,10,11-hexahydro-1H-dibenzo[b,e][1,4]diazepin-1-one]	3.23	83.7	–	–
CC(=O)N1c2ccccc2NC2=C(C(=O)CC(C)(C)C2)C1c1cccc(Oc2ccccc2Br)c1 (stereo not drawn) [compound 149, 10-acetyl-11-[3-(2-bromophenoxy)phenyl]-3,3-dimethyl-2,3,4,5,10,11-hexahydro-1H-dibenzo[b,e][1,4]diazepin-1-one]	1.78	30.4	–	–
CC(=O)N1c2ccccc2NC2=C(C(=O)CC(C)(C)C2)C1c1c(Cl)cc(OCc2ccccc2)cc1Cl (stereo not drawn) [compound 150, 10-acetyl-11-(4-benzyloxy-2,6-dichlorophenyl)-3,3-dimethyl-2,3,4,5,10,11-hexahydro-1H-dibenzo[b,e][1,4]diazepin-1-one]	1.69	> 133	–	–
Cc1ccc(C2C3=C(CC(c4ccc(Cl)cc4)CC3=O)Nc3ccccc3N2C(=O)C(F)(F)F)cc1 (stereo not drawn) [compound 160]	–	–	> 25	> 33.3
Cc1ccc(C2CC(=O)C3=C(C2)Nc2ccccc2N(C(=O)CCC(=O)O)C3c2ccc(C)cc2)cc1 (stereo not drawn) [compound 161]	> 25	29.9	–	–
CCCOc1ccccc1C1CC(=O)C2=C(C1)Nc1ccccc1N(C(=O)C(F)(F)F)C2c1ccc(OC)cc1 (stereo not drawn) [compound 163]	–	–	1.76	> 42.7
CCCCCC(=O)N1c2ccccc2NC2=C(C(=O)CC(c3ccc(Cl)cc3)C2)C1c1ccc(Cl)cc1 (stereo not drawn) [compound 164]	18.5	> 33.3	–	–
COc1ccc(C2CC(=O)C3=C(C2)Nc2ccccc2N(C(C)=O)C3c2ccc(Cl)cc2)cc1 (stereo not drawn) [compound 165]	–	–	18.6	> 33.3
Cc1ccc(C2C3=C(CC(c4ccccc4F)CC3=O)Nc3ccccc3N2C(=O)c2ccccc2)cc1 (stereo not drawn) [compound 166]	–	–	3.98	> 42.7
CCCCOc1ccc(C2CC(=O)C3=C(C2)Nc2ccccc2N(C(=O)c2ccccc2)C3c2ccccc2)cc1 (stereo not drawn) [compound 167]	–	–	3.25	> 42.7
CCCCCC(=O)N1c2ccccc2NC2=C(C(=O)CC(c3cccc([N+](=O)[O-])c3)C2)C1c1ccc(OC)cc1 (stereo not drawn) [compound 168]	–	–	3.61	> 42.7
Cc1ccc(C2CC(=O)C3=C(C2)Nc2ccccc2N(C(=O)C(F)(F)F)C3c2ccccc2Cl)cc1 (stereo not drawn) [compound 169]	–	–	17.7	> 33.3
COc1ccc(C2CC(=O)C3=C(C2)Nc2ccccc2N(C(=O)c2ccccc2)C3c2ccc(C)cc2)cc1OC (stereo not drawn) [compound 170]	–	–	3.75	> 42.7
CCCCOc1ccc(C2CC(=O)C3=C(C2)Nc2ccccc2N(C(=O)C(F)(F)F)C3c2ccccc2)cc1 (stereo not drawn) [compound 171]	–	–	4.54	> 42.7
COc1ccc(C2CC(=O)C3=C(C2)Nc2ccccc2N(C(C)=O)C3c2cccc([N+](=O)[O-])c2)cc1OC (stereo not drawn) [compound 172]	–	–	11.3	> 42.7
CCOc1ccccc1C1CC(=O)C2=C(C1)Nc1ccccc1N(C(=O)C(F)(F)F)C2c1ccc(OC)cc1 (stereo not drawn) [compound 173]	–	–	0.208	> 42.7
CCCCCC(=O)N1c2ccccc2NC2=C(C(=O)CC(c3cccc([N+](=O)[O-])c3)C2)C1c1ccc(OC)c(OC)c1 (stereo not drawn) [compound 174]	–	–	1.85	> 42.7
CCOc1ccccc1C1C2=C(CC(c3ccc(OC)cc3)CC2=O)Nc2ccccc2N1C(C)=O (stereo not drawn) [compound 179]	–	–	8.54	> 42.7
CCC(C)Oc1ccccc1C1C2=C(CC(c3ccc(OC)c(OC)c3)CC2=O)Nc2ccccc2N1C(=O)c1ccccc1 (stereo not drawn) [compound 183]	1.32	> 42.7	–	–
CCC(=O)N1c2ccccc2NC2=C(C(=O)CC(c3ccc(C)cc3)C2)C1c1ccc(C)cc1 (stereo not drawn) [compound 201]	9.62	> 33.3	–	–
CCOc1ccccc1C1CC(=O)C2=C(C1)Nc1ccccc1N(C(=O)CC)C2c1ccc(OC)cc1 (stereo not drawn) [compound 219]	–	–	2.26	> 42.7
CCCOc1ccccc1C1CC(=O)C2=C(C1)Nc1ccccc1N(C(=O)CC)C2c1ccc(OC)cc1 (stereo not drawn) [compound 220]	–	–	3.08	> 42.7
COc1ccc(C2C3=C(CC(c4cccc([N+](=O)[O-])c4)CC3=O)Nc3ccccc3N2C(=O)c2ccccc2)cc1 (stereo not drawn) [compound 221]	–	–	23.2	> 42.7
CCCCCC(=O)N1c2ccccc2NC2=C(C(=O)CC(c3ccccc3OCCC)C2)C1c1ccc(OC)cc1 (stereo not drawn) [compound 222]	–	–	7.73	> 42.7
CCC(=O)N1c2ccccc2NC2=C(C(=O)CC(c3ccc(OC)cc3)C2)C1c1ccc(OC)cc1 (stereo not drawn) [compound 223]	25	> 42.7	–	–

SMILES	EC50 [1, 3] [µM]	IC50 [2, 4] [µM]	EC50 [1, 5] [µM]	IC50 [2, 6] [µM]
CCCCCC(=O)N1c2ccccc2NC2=C(C(=O)CC(c3ccccc3)C2)C1c1ccccc1F (stereo not drawn) [compound 224]	–	–	16.1	> 33.3
COc1ccc(C2CC(=O)C3=C(C2)Nc2ccccc2N(C(=O)C(F)(F)F)C3c2ccc(Cl)cc2)cc1OC (stereo not drawn) [compound 226]	–	–	16.3	> 33.3
CCC(=O)N1c2ccccc2NC2=C(C(=O)CC(c3ccc(OC)cc3)C2)C1c1ccc(Cl)cc1 (stereo not drawn) [compound 227]	–	–	17	> 33.3
CCC(=O)N1c2ccccc2NC2=C(C(=O)CC(c3ccc(OC)c(OC)c3)C2)C1c1ccc(Cl)cc1 (stereo not drawn) [compound 228]	–	–	17.2	> 33.3
CC(=O)N1c2ccccc2NC2=C(C(=O)CC(c3ccccc3Cl)C2)C1c1ccc(C)cc1 (stereo not drawn) [compound 229]	–	–	10.9	> 42.7
Cc1ccc(C2CC(=O)C3=C(C2)Nc2ccccc2N(C(=O)C(F)(F)F)C3c2cccc(Cl)c2)cc1 (stereo not drawn) [compound 230]	–	–	19.6	> 33.3
CCCCCC(=O)N1c2ccccc2NC2=C(C(=O)CC(c3ccc(OC)cc3)C2)C1c1ccc(Cl)cc1 (stereo not drawn) [compound 232]	–	–	22.6	> 33.3
CC(=O)N1c2ccccc2NC2=C(C(=O)CC(c3cccc([N+](=O)[O-])c3)C2)C1c1ccccc1 (stereo not drawn) [compound 234]	–	–	3.89	> 36.2
CC(=O)N1c2ccccc2NC2=C(C(=O)CC(c3ccccc3F)C2)C1c1ccccc1 (stereo not drawn) [compound 236]	–	–	11.8	> 42.7
CC1(C)CC(=O)C2=C(C1)Nc1ccccc1N(C(=O)Cc1ccccc1)C2c1cccs1 (stereo not drawn) [compound 240]	7.73	> 42.7	–	–
CCC(=O)N1c2ccccc2NC2=C(C(=O)CC(C)(C)C2)C1c1ccc(-c2ccccc2[N+](=O)[O-])o1 (stereo not drawn) [compound 241]	17.1	> 42.7	–	–
CC(C)CC(=O)N1c2ccccc2NC2=C(C(=O)CC(C)(C)C2)C1c1ccc2c(c1)OCO2 (stereo not drawn) [compound 242]	1.77	> 42.7	–	–
CC(C)C(=O)N1c2ccccc2NC2=C(C(=O)CC(C)(C)C2)C1c1cccs1 (stereo not drawn) [compound 243]	25.5	> 33.3	–	–
CC1(C)CC(=O)C2=C(C1)Nc1ccccc1N(C(=O)Cc1ccc(Cl)cc1)C2c1cccs1 (stereo not drawn) [compound 245]	3.51	> 42.6	–	–
CC(=O)N1c2ccccc2NC2=C(C(=O)CC(C)(C)C2)C1CC1CC=C(C)C1(C)C (stereo not drawn) [compound 246]	1.88	> 42.7	–	–
CC1(C)CC(=O)C2=C(C1)Nc1ccccc1N(C(=O)Cc1ccc(Cl)cc1)C2c1cccnc1 (stereo not drawn) [compound 247]	17.3	> 33.3	–	–
CC(C)CC(=O)N1c2ccccc2NC2=C(C(=O)CC(C)(C)C2)C1c1cccs1 (stereo not drawn) [compound 248]	7.24	> 42.6	–	–
CCC(=O)N1c2ccccc2NC2=C(C(=O)CC(C)(C)C2)C1c1ccc(Br)s1 (stereo not drawn) [compound 249]	3.66	> 42.7	–	–
CC(=O)N1c2ccccc2NC2=C(C(=O)CC(C)(C)C2)C1c1ccc(-c2cccc([N+](=O)[O-])c2)o1 (stereo not drawn) [compound 250]	7.95	> 42.6	–	–
CC1(C)CC(=O)C2=C(C1)Nc1ccccc1N(C(=O)Cc1ccc(F)cc1)C2c1cccs1 (stereo not drawn) [compound 251]	9.88	> 42.6	–	–
CC1(C)CC(=O)C2=C(C1)Nc1ccccc1N(C(=O)C1CC1)C2c1cccs1 (stereo not drawn) [compound 252]	4.76	> 42.7	–	–
CC1(C)CC(=O)C2=C(C1)Nc1ccccc1N(C(=O)Cc1ccc(Cl)cc1)C2c1ccco1 (stereo not drawn) [compound 253]	8.7	> 42.7	–	–
CC1(C)CC(=O)C2=C(C1)Nc1ccccc1N(C(=O)c1ccc(Br)cc1)C2c1ccco1 (stereo not drawn) [compound 254]	15.3	> 42.6	–	–
CCCCC(=O)N1c2ccccc2NC2=C(C(=O)CC(C)(C)C2)C1c1ccc(-c2cccc([N+](=O)[O-])c2)o1 (stereo not drawn) [compound 255]	21.8	> 42.7	–	–
CC1(C)CC(=O)C2=C(C1)Nc1ccccc1N(C(=O)C(F)(F)F)C2c1ccc(-c2ccc([N+](=O)[O-])cc2)o1 (stereo not drawn) [compound 257]	22.4	> 42.7	–	–
